This is an account of results in US20160186067A1, “METHODS AND SYSTEMS FOR […]” (SHELL OIL COMPANY, priority 2014, published 2016).

The data set can be described thus: Partitioning of reaction intermediates and solvents between upper toluene-rich and lower aqueous phases (toluene extraction). Conditions: for Kow UL/LL (partition coefficients for toluene extraction): upper toluene-rich layer / lower aqueous-rich layer, toluene added to reactor product of wood digestion, stirred at 150° C. for 2 hours, then cooled and decanted; for Phase preference in toluene extraction: upper organic vs lower aqueous phase, Example 2. Here is the method: The injector temperature was set at 250° C., and the detector temperature was set at 300° C. A range of alkanes, ketone and aldehyde monooxygenates as well as residual glycol intermediates including ethylene glycol (EG), 1,2-propylene glycol (PG) and glycerol were observed, along with phenolic components from the initial charge of solvent, and those formed in reaction.
Reaction cycles entailed 1 hour at 160° C., followed by 1 hour at 190° C., followed by 3 hours at 240° C. Six cycles of wood addition were effected, followed by heating overnight at 270° C. under 52 bar of H2 to complete the conversion of intermediates.
Stirring was then stopped, and the reactor was allowed to cool. […] Catalyst was left on the reactor bottom.

On to `OCCO` [EG, ethylene glycol], for which the “Kow UL/LL (partition coefficients for toluene extraction)” value (from here on “Kow UL/LL”) is reported as 0.42.

Take `CCCc1ccc(O)c(OC)c1` [MPP, 2-methoxy-4-propylphenol]: the “Phase preference in toluene extraction” value was “highly favored the upper organic-rich phase” and the “Kow UL/LL” value is given as 33.59.

In the case of `CC(O)CO` (stereo not drawn) [PG, 1,2-propylene glycol], the “Kow UL/LL” value is reported as 5.09.

Take `Cc1cccc(C)c1O` [xylenol, 2,6-xylenol]: the “Phase preference in toluene extraction” value is recorded as “highly favored the upper organic-rich phase” and the “Kow UL/LL” value is recorded as 51.79.
